The subject of the assay is L1210 leukemia ip in BDF1 mice, survival T/C. The assay is described as follows: NCI In Vivo Anticancer Drug Screen. Data for tumor model L1210 Leukemia (intraperitoneal) in B6D2F1 (BDF1) mice. Particulars: endpoint: mean survival time, higher = longer survival. In short, it runs like this: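 Survival endpoint. Drug-treated group vs vehicle group, expressed as T divided by C. Tumor passaged by transplantation.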

The mark [1] stands for this setting: dose: 50.0 mg/kg/injection, schedule: Q01DX009 (ip), vehicle: Klucel (hydroxypropylcellulose) (HPC).
Setting [2] is: dose: 100.0 mg/kg/injection, schedule: Q01DX009 (ip), vehicle: Klucel (hydroxypropylcellulose) (HPC).
Where [3] appears, read: dose: 200.0 mg/kg/injection, schedule: Q01DX009 (ip), vehicle: Klucel (hydroxypropylcellulose) (HPC).
The mark [4] stands for this setting: dose: 50.0 mg/kg/injection, schedule: Q01DX009 (ip), vehicle: saline.
[5] abbreviates: dose: 100.0 mg/kg/injection, schedule: Q01DX009 (ip), vehicle: saline.
Setting [6] is: dose: 200.0 mg/kg/injection, schedule: Q01DX009 (ip), vehicle: saline.
Setting [7] is: dose: 25.0 mg/kg/injection, schedule: Q04DX002 (ip), vehicle: Klucel (hydroxypropylcellulose) (HPC).
[8] abbreviates: dose: 50.0 mg/kg/injection, schedule: Q04DX002 (ip), vehicle: Klucel (hydroxypropylcellulose) (HPC).
Setting [9] is: dose: 100.0 mg/kg/injection, schedule: Q04DX002 (ip), vehicle: Klucel (hydroxypropylcellulose) (HPC).
Where [10] appears, read: dose: 100.0 mg/kg/injection, schedule: Q04DX003 (ip), vehicle: Klucel (hydroxypropylcellulose) (HPC).
Setting [11] is: dose: 200.0 mg/kg/injection, schedule: Q04DX003 (ip), vehicle: Klucel (hydroxypropylcellulose) (HPC).
Where [12] appears, read: dose: 100.0 mg/kg/injection, schedule: Q01DX001 (ip), vehicle: carboxymethylcellulose (CMC).
Where [13] appears, read: dose: 200.0 mg/kg/injection, schedule: Q01DX001 (ip), vehicle: carboxymethylcellulose (CMC).
Where [14] appears, read: dose: 200.0 mg/kg/injection, schedule: Q04DX002 (ip), vehicle: Klucel (hydroxypropylcellulose) (HPC).
[15] abbreviates: dose: 400.0 mg/kg/injection, schedule: Q04DX002 (ip), vehicle: Klucel (hydroxypropylcellulose) (HPC).
Setting [16] is: dose: 100.0 mg/kg/injection, schedule: Q04DX003 (ip), vehicle: saline with Tween-80.
Setting [17] is: dose: 200.0 mg/kg/injection, schedule: Q04DX003 (ip), vehicle: saline with Tween-80.
Setting [18] is: dose: 400.0 mg/kg/injection, schedule: Q04DX003 (ip), vehicle: saline with Tween-80.

This is an account of results in PubChem BioAssay AID248 (DTP/NCI, 2004).

Values joined by “and” are separate entries in the source; they are usually repeats but may differ in a detail not shown here. Equal values may be shown once. Inconclusive results and toxic doses are left out.

`CCCCOS(=O)(=O)c1ccc(N)cc1`: the T/C reads like this: under setting [1], 229 % of control; under setting [2], 90 % of control; under setting [3], 93 % of control.

For the molecule `OCc1nc2nc(Cl)c(Cl)nc2[nH]1`, the T/C runs as follows: under setting [4], 93 % of control; under setting [5], 98 % of control; (dose: 100.0 mg/kg/injection, schedule: Q04DX003 (ip), vehicle: saline) 107 % of control; under setting [6], 95 % of control; (dose: 200.0 mg/kg/injection, schedule: Q04DX003 (ip), vehicle: saline) 98 % of control; (dose: 400.0 mg/kg/injection, schedule: Q04DX003 (ip), vehicle: saline) 96 % of control.

For the molecule `Cc1cnc(NN)nc1-c1ccccc1O`, the T/C is 95 % of control under setting [7]; 97 % of control under setting [8]; 105 % of control and 110 % of control under setting [9].

For `COc1ccc(C(=O)c2cccs2)cc1`, the T/C (dose: 50.0 mg/kg/injection, schedule: Q01DX009 (ip), vehicle: saline sonified) was 101 % of control; the T/C (dose: 100.0 mg/kg/injection, schedule: Q01DX009 (ip), vehicle: saline sonified) was 104 % of control; the T/C under setting [10] is 97 % of control; the T/C (dose: 200.0 mg/kg/injection, schedule: Q01DX009 (ip), vehicle: saline sonified) is 102 % of control; the T/C under setting [11] is 94 % of control.

For the molecule `Cc1ccc(NCC(=O)NN)cc1C`, the T/C was 106 % of control under setting [12]; 106 % of control and 91 % of control (dose: 100.0 mg/kg/injection, schedule: Q01DX009 (ip), vehicle: carboxymethylcellulose (CMC)); 91 % of control under setting [9]; 115 % of control (dose: 100.0 mg/kg/injection, schedule: Q04DX002 (ip), vehicle: carboxymethylcellulose (CMC)); 101 % of control (dose: 100.0 mg/kg/injection, schedule: Q04DX003 (ip), vehicle: carboxymethylcellulose (CMC)); 94 % of control under setting [13]. The T/C (dose: 200.0 mg/kg/injection, schedule: Q01DX009 (ip), vehicle: carboxymethylcellulose (CMC)) was 105 % of control and 109 % of control; the T/C under setting [14] is 98 % of control; the T/C (dose: 200.0 mg/kg/injection, schedule: Q04DX002 (ip), vehicle: carboxymethylcellulose (CMC)) is 94 % of control; the T/C (dose: 200.0 mg/kg/injection, schedule: Q04DX003 (ip), vehicle: carboxymethylcellulose (CMC)) was 89 % of control; the T/C (dose: 400.0 mg/kg/injection, schedule: Q01DX001 (ip), vehicle: carboxymethylcellulose (CMC)) is 96 % of control; the T/C (dose: 400.0 mg/kg/injection, schedule: Q01DX009 (ip), vehicle: carboxymethylcellulose (CMC)) was 95 % of control and 100 % of control. The T/C under setting [15] is 113 % of control; the T/C (dose: 400.0 mg/kg/injection, schedule: Q04DX002 (ip), vehicle: carboxymethylcellulose (CMC)) is 97 % of control; the T/C (dose: 400.0 mg/kg/injection, schedule: Q04DX003 (ip), vehicle: carboxymethylcellulose (CMC)) is 101 % of control.

For the molecule `CCS(=O)(=O)OCCCl`, the T/C reads like this: (dose: 25.0 mg/kg/injection, schedule: Q01DX009 (ip), vehicle: Klucel (hydroxypropylcellulose) (HPC)) 94 % of control; under setting [7], 97 % of control; under setting [1], 93 % of control; under setting [8], 94 % of control; under setting [12], 112 % of control; under setting [9], 102 % of control and 90 % of control. Besides, the T/C under setting [13] is 116 % of control.

Turning to `Cc1ccc(-n2c(N)cc(=O)[nH]c2=S)nc1`, the T/C by setting is: (dose: 100.0 mg/kg/injection, schedule: Q04DX002 (ip), vehicle: saline) 96 % of control; (dose: 200.0 mg/kg/injection, schedule: Q04DX002 (ip), vehicle: saline) 100 % of control; (dose: 400.0 mg/kg/injection, schedule: Q04DX002 (ip), vehicle: saline) 107 % of control.

Turning to `N#CS/C=C\C(=O)O`, the T/C runs as follows: (dose: 3.12 mg/kg/injection, schedule: Q01DX001 (ip), vehicle: saline with Tween-80) 95 % of control and 101 % of control; (dose: 3.12 mg/kg/injection, schedule: Q01DX009 (ip), vehicle: saline with Tween-80) 93 % of control; (dose: 3.12 mg/kg/injection, schedule: Q04DX003 (ip), vehicle: saline with Tween-80) 107 % of control; (dose: 6.25 mg/kg/injection, schedule: Q01DX001 (ip), vehicle: saline with Tween-80) 95 % of control and 101 % of control; (dose: 6.25 mg/kg/injection, schedule: Q01DX009 (ip), vehicle: saline with Tween-80) 98 % of control and 102 % of control; (dose: 6.25 mg/kg/injection, schedule: Q04DX003 (ip), vehicle: saline with Tween-80) 96 % of control and 100 % of control. Moreover, the T/C is 94 % of control and 103 % of control and 105 % of control (dose: 12.5 mg/kg/injection, schedule: Q01DX001 (ip), vehicle: saline with Tween-80); 95 % of control and 102 % of control (dose: 12.5 mg/kg/injection, schedule: Q01DX009 (ip), vehicle: saline with Tween-80); 102 % of control and 103 % of control (dose: 12.5 mg/kg/injection, schedule: Q04DX003 (ip), vehicle: saline with Tween-80); 94 % of control and 103 % of control (dose: 25.0 mg/kg/injection, schedule: Q01DX001 (ip), vehicle: saline with Tween-80); 100 % of control and 92 % of control (dose: 25.0 mg/kg/injection, schedule: Q01DX009 (ip), vehicle: saline with Tween-80); 93 % of control and 98 % of control (dose: 25.0 mg/kg/injection, schedule: Q04DX003 (ip), vehicle: saline with Tween-80). The T/C (dose: 50.0 mg/kg/injection, schedule: Q01DX001 (ip), vehicle: saline with Tween-80) was 100 % of control and the T/C (dose: 50.0 mg/kg/injection, schedule: Q04DX003 (ip), vehicle: saline with Tween-80) is 97 % of control.

For the molecule `Fc1ccc(NC(=S)Nc2ccccc2)cc1`, the T/C is 108 % of control under setting [9], 116 % of control under setting [14] and 97 % of control under setting [15].

Regarding `Brc1csc2ncccc12`, the T/C under setting [1] is 102 % of control; the T/C under setting [2] is 101 % of control; the T/C under setting [10] is 97 % of control; the T/C under setting [3] was 96 % of control; the T/C under setting [11] was 100 % of control.

In the case of `CC12NC(=O)NC1(C)NC(=O)N2` (centres undefined), the T/C (dose: 25.0 mg/kg/injection, schedule: Q01DX009 (ip), vehicle: saline) is 89 % of control; the T/C under setting [4] was 95 % of control; the T/C under setting [5] is 96 % of control and 89 % of control; the T/C under setting [16] is 96 % of control; the T/C under setting [6] is 100 % of control; the T/C under setting [17] was 102 % of control. Further, the T/C under setting [18] is 96 % of control.

As for `O=C(O)CCCC1CC(=O)c2c(c(O)c3ccccc3c2O)C1=O` (centres undefined), the T/C (dose: 50.0 mg/kg/injection, schedule: Q01DX009 (ip), vehicle: saline with Tween-80) was 101 % of control; the T/C (dose: 100.0 mg/kg/injection, schedule: Q01DX009 (ip), vehicle: saline with Tween-80) is 103 % of control; the T/C under setting [16] is 101 % of control; the T/C (dose: 200.0 mg/kg/injection, schedule: Q01DX009 (ip), vehicle: saline with Tween-80) is 101 % of control; the T/C under setting [17] was 95 % of control; the T/C under setting [18] was 95 % of control.

As to `CC(=O)/C=C/c1ccc([N+](=O)[O-])o1`, the T/C was 116 % of control (dose: 100.0 mg/kg/injection, schedule: Q01DX001 (ip), vehicle: Klucel (hydroxypropylcellulose) (HPC)) and 121 % of control (dose: 200.0 mg/kg/injection, schedule: Q01DX001 (ip), vehicle: Klucel (hydroxypropylcellulose) (HPC)).

As for `CC(C)OC(=O)COc1cc(F)c(Cl)cc1Cl`, the T/C is, setting by setting: under setting [9], 102 % of control; under setting [14], 95 % of control; under setting [15], 102 % of control.

As for `CC1(C)OCC(C2OC(C)(C)OC2C(O)c2cn(-c3ccccc3)nn2)O1` (centres undefined), the T/C was 102 % of control (dose: 100.0 mg/kg/injection, schedule: Q01DX005 (ip), vehicle: saline) and 104 % of control (dose: 200.0 mg/kg/injection, schedule: Q01DX005 (ip), vehicle: saline).
